target: T1, PD-1/PD-L1 (Homo sapiens, UniProt Q9NZQ7); test: PD-1/PD-L1 Homogenous Time-Resolved Fluorescence (HTRF) binding assay; details: PD-L1-His 10 nM, PD-1-Ig 20 nM
T1 construct: TVMV protease site linker (C); made in house; host or cells: HEK293T cells
Method in brief: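 Inhibitors pre-incubated 15 min with PD-L1-His extracellular domain (10 nM final) in dPBS with 0.1% BSA and 0.05% Tween-20, then PD-1-Ig (20 nM final) added for a further 15 min. Read-out by HTRF with europium cryptate anti-Ig (1 nM) and APC anti-His (20 nM). Related pairs: PD-1-Ig/PD-L2-His (20/5 nM), CD80-His/PD-L1-Ig (100/10 nM).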

T1 sequence (Q9NZQ7 18-239): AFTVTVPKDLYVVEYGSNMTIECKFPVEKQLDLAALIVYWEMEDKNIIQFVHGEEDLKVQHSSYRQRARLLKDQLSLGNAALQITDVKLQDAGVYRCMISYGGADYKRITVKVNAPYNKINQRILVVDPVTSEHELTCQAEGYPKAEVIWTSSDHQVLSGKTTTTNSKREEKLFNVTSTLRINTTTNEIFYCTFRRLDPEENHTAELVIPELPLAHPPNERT

`CCN(Cc1nnn[nH]1)Cc1cc(Cl)c(OCc2cccc(-c3cccc(OCCCN4CC[C@@H](O)C4)c3C)c2C)cc1OCc1cncc(C#N)c1` [Example 1007, (R)-5-((2-((((1H-Tetrazol-5-yl)methyl)(ethyl)amino)methyl)-4-chloro-5-((3′-(3-(3-hydroxypyrrolidin-1-yl)propoxy)-2,2′-dimethyl-[1,1′-biphenyl]-3-yl)methoxy)phenoxy)methyl)nicotinonitrile] and `Cc1c(COc2cc(OCc3cncc(C#N)c3)c(CN(C)Cc3cc(C)n(C)n3)cc2Cl)cccc1-c1cccc(OCCCN2CC[C@@H](O)C2)c1C` [Example 2541, (R)-5-((4-chloro-2-((((1,5-dimethyl-1H-pyrazol-3-yl)methyl)(methyl)amino)methyl)-5-((3′-(3-(3-hydroxypyrrolidin-1-yl)propoxy)-2,2′-dimethyl-[1,1′-biphenyl]-3-yl)methoxy)phenoxy)methyl)nicotinonitrile] are within 1.5-fold of each other in IC50: 3 nM for the first, 3.9 nM for the second.

Compared with `CCc1csc(CNCc2cc(Cl)c(OCc3cccc(-c4cccc(OCC5CCCN(C)C5)c4Cl)c3C)cc2OCc2cncc(C#N)c2)n1` (stereo not shown) [Example 2622, 5-((4-chloro-5-((2′-chloro-2-methyl-3′-((1-methylpiperidin-3-yl)methoxy)-[1,1′-biphenyl]-3-yl)methoxy)-2-((((4-ethylthiazol-2-yl)methyl)amino)methyl)phenoxy)methyl)nicotinonitrile], `Cc1c(COc2cc(OCc3cncc(C#N)c3)c(CNCc3csc(N)n3)cc2Cl)cccc1-c1cccc(OCC2CCCN(C)C2)c1Cl` (stereo not shown) [Example 2586, 5-((2-((((2-aminothiazol-4-yl)methyl)amino)methyl)-4-chloro-5-((2′-chloro-2-methyl-3′-((1-methylpiperidin-3-yl)methoxy)-[1,1′-biphenyl]-3-yl)methoxy)phenoxy)methyl)nicotinonitrile] is 12-fold lower in IC50: 8.3 nM for the first, 0.7 nM for the second.

Going from `COCc1noc(CN(C)Cc2cc(Cl)c(OCc3cccc(-c4cccc(OCCCN5CC[C@@H](O)C5)c4C)c3C)cc2OCc2cncc(C#N)c2)n1` [Example 2560, (R)-5-((4-chloro-5-((3′-(3-(3-hydroxypyrrolidin-1-yl)propoxy)-2,2′-dimethyl-[1,1′-biphenyl]-3-yl)methoxy)-2-((((3-(methoxymethyl)-1,2,4-oxadiazol-5-yl)methyl)(methyl)amino)methyl)phenoxy)methyl)nicotinonitrile] to `Cc1c(COc2cc(OCc3cncc(C#N)c3)c(CN(C)CCc3nc4cc(Cl)ccc4[nH]3)cc2Cl)cccc1-c1cccc(OCCCN2CC[C@@H](O)C2)c1C` [Example 2517, (R)-5-((4-chloro-2-(((2-(5-chloro-1H-benzo[d]imidazol-2-yl)ethyl)(methyl)amino)methyl)-5-((3′-(3-(3-hydroxypyrrolidin-1-yl)propoxy)-2,2′-dimethyl-[1,1′-biphenyl]-3-yl)methoxy)phenoxy)methyl)nicotinonitrile], the IC50 rises from 4.5 nM to 12.4 nM (2.8-fold). The first is the more potent here.

Going from `CC(=O)NC1CCN(CCCOc2cccc(-c3cccc(COc4cc(OCc5cncc(C#N)c5)c(CN5CCCC(c6ncc[nH]6)C5)cc4Cl)c3C)c2C)CC1` (stereo not shown) [Example 1038, N-(1-(3-((3′-((4-((3-(1H-Imidazol-2-yl)piperidin-1-yl)methyl)-2-chloro-5-((5-cyano-pyridin-3-yl)methoxy)phenoxy)methyl)-2,2′-dimethyl-[1,1′-biphenyl]-3-yl)oxy)propyl)-piperidin-4-yl)acetamide] to `CC(=O)NC1CCN(CCCOc2cccc(-c3cccc(COc4cc(OCc5cncc(C#N)c5)c(CN5CCCCC5c5cc[nH]n5)cc4Cl)c3C)c2C)CC1` (stereo not shown) [Example 1053, N-(1-(3-((3′-((4-((2-(1H-Pyrazol-3-yl)piperidin-1-yl)methyl)-2-chloro-5-((5-cyano-pyridin-3-yl)methoxy)phenoxy)methyl)-2,2′-dimethyl-[1,1′-biphenyl]-3-yl)oxy)propyl)-piperidin-4-yl)acetamide], the IC50 rises from 3.7 nM to 7.6 nM (2.1-fold). The first is the more potent here.

`CCN(CCO)CCCOc1cccc(-c2cccc(COc3cc(OCc4cncc(C#N)c4)c(CNCc4c[nH]cn4)cc3Cl)c2C)c1C` [Example 2033, 5-((2-((((1H-imidazol-4-yl)methyl)amino)methyl)-4-chloro-5-((3′-(3-(ethyl(2-hydroxyethyl)amino)propoxy)-2,2′-dimethyl-[1,1′-biphenyl]-3-yl)methoxy)phenoxy)methyl)nicotinonitrile] and `Cc1c(COc2cc(OCc3cncc(C#N)c3)c(CNCc3cnc[nH]3)cc2Cl)cccc1-c1cccc(OC2CCN(C)CC2)c1Cl` [Example 2047, 5-((2-((((1H-imidazol-5-yl)methyl)amino)methyl)-4-chloro-5-((2′-chloro-2-methyl-3′-((1-methylpiperidin-4-yl)oxy)-[1,1′-biphenyl]-3-yl)methoxy)phenoxy)methyl)nicotinonitrile] are within 1.5-fold of each other in IC50: 2.9 nM for the first, 3.5 nM for the second.

Compared with `Cc1c(COc2cc(OCc3cncc(C#N)c3)c(CNCc3ncc4ccccn34)cc2Cl)cccc1-c1cccc(OCC2CCCN(C)C2)c1Cl` (stereo not shown) [Example 2623, 5-((4-chloro-5-((2′-chloro-2-methyl-3′-((1-methylpiperidin-3-yl)methoxy)-[1,1′-biphenyl]-3-yl)methoxy)-2-(((imidazo[1,5-a]pyridin-3-ylmethyl)amino)methyl)phenoxy)methyl)nicotinonitrile], `Cc1c(COc2cc(OCc3cncc(C#N)c3)c(CNCc3nccs3)cc2Cl)cccc1-c1cccc(OCC2CCCN(C)C2)c1Cl` (stereo not shown) [Example 2585, 5-((4-chloro-5-((2′-chloro-2-methyl-3′-((1-methylpiperidin-3-yl)methoxy)-[1,1′-biphenyl]-3-yl)methoxy)-2-(((thiazol-2-ylmethyl)amino)methyl)phenoxy)methyl)nicotinonitrile] is 2.2-fold lower in IC50: 6.1 nM for the first, 2.8 nM for the second. The second is the more potent here.

Compared with `Cc1c(COc2cc(OCc3cncc(C#N)c3)c(CNCc3ncn[nH]3)cc2Cl)cccc1-c1cccc(OCC2CCCN(C)C2)c1Cl` (stereo not shown) [Example 2578, 5-((2-((((1H-1,2,4-triazol-5-yl)methyl)amino)methyl)-4-chloro-5-((2′-chloro-2-methyl-3′-((1-methylpiperidin-3-yl)methoxy)-[1,1′-biphenyl]-3-yl)methoxy)phenoxy)methyl)nicotinonitrile], `Cc1c(COc2cc(OCc3cncc(C#N)c3)c(CNCCc3cscn3)cc2Cl)cccc1-c1cccc(OCC2CCCN(C)C2)c1Cl` (stereo not shown) [Example 2598, 5-((4-chloro-5-((2′-chloro-2-methyl-3′-((1-methylpiperidin-3-yl)methoxy)-[1,1′-biphenyl]-3-yl)methoxy)-2-(((2-(thiazol-4-yl)ethyl)amino)methyl)phenoxy)methyl)nicotinonitrile] is 1.9-fold lower in IC50: 1.9 nM for the first, 1 nM for the second.

Going from `Cc1c(COc2cc(OCc3cncc(C#N)c3)c(CN3CCCC(c4cc[nH]n4)C3)cc2Cl)cccc1-c1cccc(OCCCN2CC[C@@H](O)C2)c1C` (stereo partly drawn) [Example 2568, 5-((2-((3-(1H-pyrazol-3-yl)piperidin-1-yl)methyl)-4-chloro-5-((3′-(3-((R)-3-hydroxypyrrolidin-1-yl)propoxy)-2,2′-dimethyl-[1,1′-biphenyl]-3-yl)methoxy)phenoxy)methyl)nicotinonitrile] to `Cc1c(COc2cc(OCc3cncc(C#N)c3)c(CN3CCCCC3c3nc(=O)[nH][nH]3)cc2Cl)cccc1-c1cccc(OCCCN2CC[C@@H](O)C2)c1C` (stereo partly drawn) [Example 1010, 5-((4-Chloro-5-((3′-(3-((R)-3-hydroxypyrrolidin-1-yl)propoxy)-2,2′-dimethyl-[1,1′-biphenyl]-3-yl)methoxy)-2-((2-(5-oxo-2,5-dihydro-1H-1,2,4-triazol-3-yl)piperidin-1-yl)-methyl)phenoxy)methyl)nicotinonitrile], the IC50 rises from 2.5 nM to 5.3 nM (2.1-fold).
